A word on the IC50: it is the midpoint of a concentration-inhibition curve. As usually defined, the EC50 is the concentration giving half of the maximal effect.

Assay [1] has as its system Rattus norvegicus. Briefly: Protective activity in Sprague-Dawley rat model of middle cerebral artery occlusion-induced ischemia-reperfusion injury assessed as prevention of reperfusion injury at 5 mg/kg, iv measured after 24 hrs of post reperfusion by TTC staining based assay. It is filed as functional, organism-based.
For assay [2], the system named is HT-1080. Briefly: Inhibition of LOX expression in erastin-induced human HT-1080 cell ferroptosis model at 0.01 to 1 uM after 10 hrs by Western blot analysis. It is filed as functional. Particulars: dose 0.01-1 µM. (In general: Immunoblotting shows a protein as a band on a membrane.)
Assay [3] concerns the target T1, Alpha-1B adrenergic receptor (Homo sapiens) (UniProt P35368).
T1 sequence (whole entry): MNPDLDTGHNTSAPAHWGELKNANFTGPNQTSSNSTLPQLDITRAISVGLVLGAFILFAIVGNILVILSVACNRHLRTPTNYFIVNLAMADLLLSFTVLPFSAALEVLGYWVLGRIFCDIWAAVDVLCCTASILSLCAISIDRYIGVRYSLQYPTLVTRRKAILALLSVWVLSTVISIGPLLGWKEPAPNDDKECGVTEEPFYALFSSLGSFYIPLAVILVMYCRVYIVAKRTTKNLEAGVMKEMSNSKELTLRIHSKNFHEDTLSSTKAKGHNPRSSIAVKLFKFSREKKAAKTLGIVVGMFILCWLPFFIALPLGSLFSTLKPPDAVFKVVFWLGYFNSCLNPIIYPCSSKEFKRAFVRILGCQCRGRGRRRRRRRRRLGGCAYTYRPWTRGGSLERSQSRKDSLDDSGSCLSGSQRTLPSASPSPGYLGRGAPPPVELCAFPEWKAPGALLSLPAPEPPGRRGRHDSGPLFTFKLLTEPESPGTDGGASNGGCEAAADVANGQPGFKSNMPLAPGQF
Briefly: Antagonist activity at ADRA1B (unknown origin) by FLIPR assay.

Assay [4] concerns Rattus norvegicus. Briefly: Protective activity in Sprague-Dawley rat model of middle cerebral artery occlusion-induced ischemia-reperfusion injury assessed as reduction in MDA level at 5 mg/kg, iv measured after 24 hrs of post reperfusion […]. It is filed as functional, organism-based.
The target of assay [5] is Indoleamine 2,3-dioxygenase 1 (Homo sapiens, UniProt P14902). Briefly: Inhibition of IDO1 (unknown origin).
In assay [6] the test system is HT-1080. Briefly: Inhibition of staurosporine-induced apoptotic cell death in human HT-1080 cells assessed as cell viability at 10 uM. The class given is functional, cell-based.
Assay [7] concerns Rattus norvegicus. Put plainly: Protective activity in Sprague-Dawley rat model of middle cerebral artery occlusion-induced ischemia-reperfusion injury assessed as restoration of walking ability at 5 mg/kg, iv measured after 24 hrs of post reperfusion […]. The class given is functional, organism-based.
The test system of assay [8] is HT-1080. Briefly: Inhibition of xCT expression in erastin-induced human HT-1080 cell ferroptosis model at 0.01 to 1 uM after 10 hrs by Western blot analysis. The class given is functional. Conditions: dose 0.01-1 µM.
The next assay deals with MDA-MB-231. Briefly: Inhibition of erastin-induced ferroptosis in human MDA-MB-231 cells assessed as cell viability incubated for 48 hrs by MTT assay. It is filed as functional, cell-based. Particulars: MDA-MB-231, 48 h. For orientation: Formazan colour is commonly taken as a measure of viable cells.
The target of assay [9] is Bifunctional arginine demethylase and lysyl-hydroxylase JMJD6 (Homo sapiens, UniProt Q6NYC1). Briefly: Inhibition of JMJD6 (unknown origin).
The test system of a further assay is THP-1. Briefly: Protection against nigericin-induced pyroptosis in human THP-1 cells assessed as cell viability at 10 uM. The class given is functional, cell-based.
The subject of assay [10] is Calu-1. Briefly: Inhibition of erastin-induced ferroptosis in human Calu-1 cells assessed as cell viability incubated for 48 hrs by MTT assay. The class given is functional, cell-based. Particulars: Calu-1, 48 h.
Assay [11] relates to Calu-1. Briefly: Antioxidant activity in erastin-induced human Calu-1 cell ferroptosis model assessed as decrease in lipid ROS accumulation at 0.01 to 1 uM incubated for 8 to 24 hrs by BODIPY 581/591 C11 staining based flow cytometric analysis. The class given is functional. Particulars: dose 0.01-1 µM, time 8-24 hrs. For orientation: In flow cytometry, cells or beads pass a laser one at a time.

For a further assay, the system named is HT-29. Briefly: Protection against TNFalpha/Smac-mimetic/Z-VAD-FMK-induced necroptosis in human HT-29 cells assessed as cell viability at 10 uM. It is filed as functional, cell-based.
In assay [12] the test system is HT-1080. Briefly: Inhibition of H2O2-induced oxidative cell death in human HT-1080 cells at 10 uM incubated for 24 hrs. The class given is functional, cell-based.

Calls of active or inactive are those of the source. The calls are words filed in the database; no cut-off is given here. Some results are limits rather than exact numbers.

Indoleamine 2,3-dioxygenase 1, sequence (P14902 whole entry): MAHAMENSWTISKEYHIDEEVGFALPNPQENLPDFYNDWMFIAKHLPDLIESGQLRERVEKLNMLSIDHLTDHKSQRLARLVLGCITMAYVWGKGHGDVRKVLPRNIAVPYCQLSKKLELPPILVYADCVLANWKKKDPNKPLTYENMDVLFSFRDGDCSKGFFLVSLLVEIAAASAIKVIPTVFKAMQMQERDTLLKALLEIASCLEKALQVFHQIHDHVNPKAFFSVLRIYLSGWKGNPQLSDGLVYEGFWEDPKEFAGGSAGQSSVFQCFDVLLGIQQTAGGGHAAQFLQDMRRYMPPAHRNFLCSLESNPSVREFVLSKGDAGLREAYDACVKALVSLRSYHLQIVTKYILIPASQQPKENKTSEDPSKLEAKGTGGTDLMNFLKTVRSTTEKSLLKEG

For `CC(c1ccc(N2CCN(C)CC2)cc1)c1ccc2c(c1)Nc1ccccc1S2` (stereo not given), the result with Rattus norvegicus [1], in the assay with Rattus norvegicus [4], with Rattus norvegicus [7] and in the assay with Calu-1 [11] was Active. The inhibition entry in the assay with HT-1080 [2] and with HT-1080 [8] was “inactive” each time. The outcome (in [3]; in the assay on HT-1080 [6]; in the assay with THP-1; in the assay on HT-29; in the assay on HT-1080 [12]) was inactive. In addition, the 50% inhibitory concentration (IC50) in assay [5] and in [9] was above 10000 nM each time. For the same molecule, the concentration for a half-maximal effect (EC50) in the assay with MDA-MB-231 is 0.424 nM; in the assay with Calu-1 [10], 1.88 nM.

These data come from ChEMBL document CHEMBL4732064, “Structure-activity relationship studies of phenothiazine derivatives as a new class of ferroptosis inhibitors together with the therapeutic effect in an ischemic stroke model” (Eur J Med Chem, 2021).
